Data from ChEMBL document CHEMBL1201862, “PubChem BioAssay data set” (2004).
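Interpolation was linear, between the two tested concentrations surrounding the appropriate level; five concentrations were tested over 48 hours in 96-well plates. GI50 = concentration required for 50% inhibition of growth.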 The source made the active and inactive calls. Rule as the data show it: active = GI50 up to about 1.1 µM and inactive = higher.

Experiments:
Test in all cases: NCI-60 cell line screen, 48 h
[1] = test system: COLO 205
[2] = test system: SK-MEL-28
[3] = test system: EKVX
[4] = test system: SN12C
[5] = test system: TK-10
[6] = test system: NCI-H226
[7] = test system: SK-MEL-5
[8] = test system: UACC-257
[9] = test system: Malme-3M
[10] = test system: SW-620
[11] = test system: MDA-N
[12] = test system: OVCAR-5
[13] = test system: MCF7
[14] = test system: U-251
[15] = test system: HCT-116
[16] = test system: UACC-62
[17] = test system: NCI-H460
[18] = test system: SF-539
[19] = test system: T47D
[20] = test system: IGROV-1

With O=C1c2ccccc2C(=O)c2c(OCC3CO3)ccc(OCC3CO3)c21 (configuration not stated) the GI50 [1] was 4.44 µM (inactive), the GI50 [2] was 5.47 µM (inactive) and the GI50 [3] was 12.5 µM (inactive). For the same molecule, the GI50 [4] was 1.07 µM (active), the GI50 [5] was 18.8 µM (inactive) and the GI50 [6] was 12.4 µM (inactive). The GI50 [7] was 5.69 µM (inactive), the GI50 [8] was 6.04 µM (inactive) and the GI50 [9] was 7.74 µM (inactive). The GI50 [10] was 1.1 µM (active), the GI50 [11] was 3.8 µM (inactive) and the GI50 [12] was 10.5 µM (inactive). The GI50 [13] was 0.195 µM (active), the GI50 [14] was 2.92 µM (inactive) and the GI50 [15] was 1.99 µM (inactive). For the same molecule, the GI50 [16] was 2.1 µM (inactive), the GI50 [17] was 1.99 µM (inactive) and the GI50 [18] was 4.15 µM (inactive). For the same molecule, the GI50 [19] was 6 µM (inactive) and the GI50 [20] was 3.54 µM (inactive).

For Cc1cc(=O)oc2cc(O)c(CN(C)CC(=O)O)cc12, the GI50 [1] was > 100 µM (inactive), the GI50 [2] was > 100 µM (inactive) and the GI50 [3] was > 100 µM (inactive). For the same molecule, the GI50 [4] was > 100 µM (inactive), the GI50 [5] was > 100 µM (inactive) and the GI50 [6] was > 100 µM (inactive). For the same molecule, the GI50 [7] was > 100 µM (inactive), the GI50 [8] was > 100 µM (inactive) and the GI50 [9] was > 100 µM (inactive). The GI50 [10] was > 100 µM (inactive), the GI50 [11] was > 100 µM (inactive) and the GI50 [12] was > 100 µM (inactive). The GI50 [13] was > 100 µM (inactive), the GI50 [14] was > 100 µM (inactive) and the GI50 [15] was > 100 µM (inactive). The GI50 [16] was > 100 µM (inactive), the GI50 [17] was > 100 µM (inactive) and the GI50 [18] was > 100 µM (inactive). For the same molecule, the GI50 [19] was > 100 µM (inactive) and the GI50 [20] was > 100 µM (inactive).

With COc1c(C=O)c2c(c(OC)c1OC)-c1ccc(OC)c(=O)cc1[C@@H](NC(C)=O)CC2 the GI50 [1] was 0.0239 µM (active), the GI50 [2] was 4.08 µM (inactive) and the GI50 [3] was 47.9 µM (inactive). For the same molecule, the GI50 [4] was 0.0824 µM (active), the GI50 [5] was 3.83 µM (inactive) and the GI50 [6] was 0.583 µM (active). For the same molecule, the GI50 [7] was 0.0241 µM (active), the GI50 [8] was 0.0826 µM (active) and the GI50 [9] was 0.164 µM (active). The GI50 [10] was 0.0148 µM (active), the GI50 [11] was < 0.01 µM (active) and the GI50 [12] was 3.78 µM (inactive). For the same molecule, the GI50 [13] was < 0.01 µM (active), the GI50 [14] was 0.0367 µM (active) and the GI50 [15] was 0.0174 µM (active). The GI50 [16] was 0.0412 µM (active), the GI50 [17] was 0.0771 µM (active) and the GI50 [18] was 0.0237 µM (active). For the same molecule, the GI50 [19] was > 100 µM (inactive) and the GI50 [20] was 0.0461 µM (active).

For CN(C)Cc1nsc(N(C)C)n1, the GI50 [1] was > 100 µM (inactive), the GI50 [2] was > 100 µM (inactive) and the GI50 [3] was > 100 µM (inactive). The GI50 [4] was > 100 µM (inactive), the GI50 [5] was > 100 µM (inactive) and the GI50 [6] was > 100 µM (inactive). The GI50 [7] was > 100 µM (inactive), the GI50 [8] was > 100 µM (inactive) and the GI50 [9] was > 100 µM (inactive). For the same molecule, the GI50 [10] was > 100 µM (inactive), the GI50 [11] was > 100 µM (inactive) and the GI50 [12] was > 100 µM (inactive). For the same molecule, the GI50 [13] was > 100 µM (inactive), the GI50 [14] was > 100 µM (inactive) and the GI50 [15] was > 100 µM (inactive). The GI50 [16] was > 100 µM (inactive), the GI50 [17] was > 100 µM (inactive) and the GI50 [18] was > 100 µM (inactive). For the same molecule, the GI50 [19] was > 100 µM (inactive) and the GI50 [20] was > 100 µM (inactive).

For CCCCc1ccc(Nc2nc3c(ncn3COCCBr)c(=O)[nH]2)cc1, the GI50 [1] was > 100 µM (inactive), the GI50 [3] was > 100 µM (inactive) and the GI50 [4] was > 100 µM (inactive). The GI50 [5] was > 100 µM (inactive), the GI50 [6] was > 100 µM (inactive) and the GI50 [7] was > 100 µM (inactive). The GI50 [8] was > 100 µM (inactive), the GI50 [9] was > 100 µM (inactive) and the GI50 [10] was > 100 µM (inactive). For the same molecule, the GI50 [11] was > 100 µM (inactive), the GI50 [12] was > 100 µM (inactive) and the GI50 [13] was > 100 µM (inactive). The GI50 [14] was > 100 µM (inactive), the GI50 [15] was > 100 µM (inactive) and the GI50 [16] was > 100 µM (inactive). For the same molecule, the GI50 [17] was > 100 µM (inactive), the GI50 [18] was > 100 µM (inactive) and the GI50 [19] was 40.1 µM (inactive). For the same molecule, the GI50 [20] was > 100 µM (inactive).

CO[C@@H]1C[C@H]2[C@@H]3CC[C@H]([C@H](C)COC(C)=O)[C@@]3(C)CC[C@@H]2[C@@]2(C)CC[C@H]3C[C@]312 was tested, and the GI50 [1] was 34 µM (inactive), the GI50 [2] was > 100 µM (inactive) and the GI50 [3] was > 100 µM (inactive). For the same molecule, the GI50 [4] was > 100 µM (inactive), the GI50 [5] was > 100 µM (inactive) and the GI50 [6] was > 100 µM (inactive). For the same molecule, the GI50 [7] was > 100 µM (inactive), the GI50 [8] was > 100 µM (inactive) and the GI50 [9] was > 100 µM (inactive). The GI50 [10] was > 100 µM (inactive), the GI50 [11] was > 100 µM (inactive) and the GI50 [12] was > 100 µM (inactive). For the same molecule, the GI50 [13] was 81.3 µM (inactive), the GI50 [14] was > 100 µM (inactive) and the GI50 [15] was > 100 µM (inactive). The GI50 [17] was > 100 µM (inactive), the GI50 [18] was > 100 µM (inactive) and the GI50 [19] was > 100 µM (inactive). The GI50 [20] was > 100 µM (inactive).

For CCc1cccc(CC)c1NC(=S)NC(=O)c1ccc(Br)cc1, the GI50 [1] was 18.1 µM (inactive), the GI50 [2] was 55.1 µM (inactive) and the GI50 [3] was 23.6 µM (inactive). For the same molecule, the GI50 [4] was 32.6 µM (inactive), the GI50 [5] was 25.3 µM (inactive) and the GI50 [6] was 21.5 µM (inactive). For the same molecule, the GI50 [7] was 26.4 µM (inactive), the GI50 [8] was 32.2 µM (inactive) and the GI50 [9] was 18.4 µM (inactive). The GI50 [10] was 36.5 µM (inactive), the GI50 [11] was 30.4 µM (inactive) and the GI50 [12] was > 50.4 µM (inactive). The GI50 [13] was 20.6 µM (inactive), the GI50 [14] was 40.1 µM (inactive) and the GI50 [15] was 28.8 µM (inactive). The GI50 [16] was 19.7 µM (inactive), the GI50 [17] was 17.7 µM (inactive) and the GI50 [18] was 33.1 µM (inactive). The GI50 [19] was 21.9 µM (inactive) and the GI50 [20] was 27.9 µM (inactive).

With O=C1C[C@H]2[C@@H](O1)[C@@H](O)CN1C(=O)c3ccccc3[C@H]21 the GI50 [1] was > 100 µM (inactive), the GI50 [2] was > 100 µM (inactive) and the GI50 [3] was > 100 µM (inactive). For the same molecule, the GI50 [4] was > 100 µM (inactive), the GI50 [5] was > 100 µM (inactive) and the GI50 [6] was > 100 µM (inactive). The GI50 [7] was > 100 µM (inactive), the GI50 [8] was > 100 µM (inactive) and the GI50 [9] was > 100 µM (inactive). The GI50 [10] was > 100 µM (inactive), the GI50 [11] was > 100 µM (inactive) and the GI50 [12] was > 100 µM (inactive). For the same molecule, the GI50 [13] was > 100 µM (inactive), the GI50 [14] was > 100 µM (inactive) and the GI50 [15] was > 100 µM (inactive). For the same molecule, the GI50 [16] was > 100 µM (inactive), the GI50 [17] was > 100 µM (inactive) and the GI50 [18] was > 100 µM (inactive). The GI50 [19] was > 100 µM (inactive) and the GI50 [20] was > 100 µM (inactive).

With Oc1ccc(-c2nn3c(CCCCCCCCc4nnc5sc(-c6ccc(O)cc6)nn45)nnc3s2)cc1 the GI50 [1] was > 100 µM (inactive), the GI50 [2] was > 100 µM (inactive) and the GI50 [3] was > 100 µM (inactive). For the same molecule, the GI50 [4] was > 100 µM (inactive), the GI50 [5] was > 100 µM (inactive) and the GI50 [6] was > 100 µM (inactive). For the same molecule, the GI50 [7] was > 100 µM (inactive), the GI50 [8] was > 100 µM (inactive) and the GI50 [9] was > 100 µM (inactive). For the same molecule, the GI50 [10] was > 100 µM (inactive), the GI50 [11] was > 100 µM (inactive) and the GI50 [12] was > 100 µM (inactive). For the same molecule, the GI50 [13] was > 100 µM (inactive), the GI50 [14] was > 100 µM (inactive) and the GI50 [15] was > 100 µM (inactive). The GI50 [16] was > 100 µM (inactive), the GI50 [17] was > 100 µM (inactive) and the GI50 [18] was > 100 µM (inactive). The GI50 [19] was 55.1 µM (inactive).

For CC(CN(C)C)C(O)(c1ccccc1)c1ccccc1 (configuration not stated), the GI50 [1] was > 100 µM (inactive), the GI50 [2] was > 100 µM (inactive) and the GI50 [3] was > 100 µM (inactive). The GI50 [4] was > 100 µM (inactive), the GI50 [5] was > 100 µM (inactive) and the GI50 [6] was > 100 µM (inactive). The GI50 [7] was > 100 µM (inactive), the GI50 [8] was > 100 µM (inactive) and the GI50 [9] was > 100 µM (inactive). The GI50 [10] was > 100 µM (inactive), the GI50 [11] was > 100 µM (inactive) and the GI50 [12] was > 100 µM (inactive). The GI50 [13] was > 100 µM (inactive), the GI50 [14] was > 100 µM (inactive) and the GI50 [15] was > 100 µM (inactive). For the same molecule, the GI50 [16] was > 100 µM (inactive), the GI50 [17] was > 100 µM (inactive) and the GI50 [18] was > 100 µM (inactive). For the same molecule, the GI50 [19] was > 100 µM (inactive) and the GI50 [20] was > 100 µM (inactive).
